Where two headings read alike, the source gives them in different places.
Tested on: CsgA gene expression (csgBAC promoter-GFP reporter) in E. coli UTI89
Test: In vitro live cell fluorescent reporter assay of CsgA transcription (Reporter Assay)
Type: cell-based
Conditions: Escherichia coli
Summary of the method: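 Compounds at 0.14–100 μM (1% DMSO final) incubated 20 h at 27 °C in YESCA broth with UTI89 carrying a single-copy GFP reporter under the csgBAC intergenic promoter region, inoculum OD600 0.003. Fluorescence normalized to vehicle wells gave IC50 and 50%-of-vehicle concentration; OD600 reduction >10% flagged growth impact.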

[1] = read-out: Reporter Assay Abs IC50 (μM), median Abs IC50 in the CsgA reporter assay, N/A = maximum expression reduction is <50% of control
[2] = read-out: Reporter Assay Abs IC50, activity range, class symbol
[3] = read-out: Reporter Assay Abs IC50 (activity range), median Abs IC50 in the CsgA reporter assay, class symbol

O=C(O)C1CN(CC2CCOCC2)c2c(-c3cccc(C(F)(F)F)c3)c(Cc3cccc4ccccc34)c(Cl)c(=O)n21 (stereo not drawn) [Compound 182, 6-chloro-7-(naphthalen-1-ylmethyl)-5-oxo-1-((tetrahydro-2H-pyran-4-yl)methyl)-8-(3-(trifluoromethyl)phenyl)-1,2,3,5-tetrahydroimidazo[1,2-a]pyridine-3-carboxylic acid]
IC50 [1]: 2.5 µM
IC50 [2]: 1.3 to 4.5 µM

CN1CC(C(=O)O)n2c(c(-c3cccc(C(F)(F)F)c3)c(Cc3cccc4ccccc34)c(C(=O)NC(C)(C)C)c2=O)S1(=O)=O (stereo not drawn) [Compound 158, 7-(tert-butylcarbamoyl)-2-methyl-8-(naphthalen-1-ylmethyl)-6-oxo-9-(3-(trifluoromethyl)phenyl)-3,4-dihydro-2H,6H-pyrido[1,2-e][1,2,5]thiadiazine-4-carboxylic acid 1,1-dioxide]
IC50 [1]: 1.7 µM
IC50 [2]: 1.3 to 4.5 µM

O=C(O)C1CN(Cc2cccc3ccccc23)c2c(-c3cccc(C(F)(F)F)c3)c(Cc3cccc4ccccc34)c(Cl)c(=O)n21 (stereo not drawn) [Compound 200, 6-chloro-1,7-bis(naphthalen-1-ylmethyl)-5-oxo-8-(3-(trifluoromethyl)phenyl)-1,2,3,5-tetrahydroimidazo[1,2-a]pyridine-3-carboxylic acid]
IC50 [1]: 1.3 µM
IC50 [2]: 1.3 to 4.5 µM

CCNC(=O)c1c(Cc2cccc3ccccc23)c(-c2cccc(C(F)(F)F)c2)c2n(c1=O)C(C(=O)O)CN(C)S2(=O)=O (stereo not drawn) [Compound 156, 7-(ethylcarbamoyl)-2-methyl-8-(naphthalen-1-ylmethyl)-6-oxo-9-(3-(trifluoromethyl)phenyl)-3,4-dihydro-2H,6H-pyrido[1,2-e][1,2,5] thiadiazine-4-carboxylic acid 1,1-dioxide]
IC50 [1]: 9.3 µM
IC50 [2]: 4.6 to 10 µM

O=C(O)C1CN(Cc2ccccc2)c2c(-c3cccc(C(F)(F)F)c3)c(Cc3cccc4ccccc34)c(Cl)c(=O)n21 (stereo not drawn) [Compound 004, 1-benzyl-6-chloro-7-(naphthalen-1-ylmethyl)-5-oxo-8-(3-(trifluoromethyl)phenyl)-1,2,3,5-tetrahydroimidazo[1,2-a]pyridine-3-carboxylic acid]
IC50 [1]: 0.7 µM
IC50 [2]: < 1.3 µM

Cn1c(=O)c2c(ncn2CCCCN2CC(C(=O)O)n3c(c(-c4cccc(C(F)(F)F)c4)c(Cc4cccc5ccccc45)cc3=O)S2(=O)=O)n(C)c1=O (stereo not drawn) [Compound 033, 2-(4-(1,3-dimethyl-2,6-dioxo-1,2,3,6-tetrahydro-7H-purin-7-yl)butyl)-8-(naphthalen-1-ylmethyl)-6-oxo-9-(3-(trifluoromethyl)phenyl)-3,4-dihydro-2H,6H-pyrido[1,2-e][1,2,5]thiadiazine-4-carboxylic acid 1,1-dioxide]
IC50 [3]: 1.3 to 4.5 µM
IC50 [1]: 3.3 µM

CCCN1CC(C(=O)O)n2c(c(-c3cccc(C(F)(F)F)c3)c(Cc3cccc4ccccc34)c(NC(=O)CC)c2=O)S1(=O)=O (stereo not drawn) [Compound 153, 8-(naphthalen-1-ylmethyl)-6-oxo-7-propionamido-2-propyl-9-(3-(trifluoromethyl)phenyl)-3,4-dihydro-2H,6H-pyrido[1,2-e][1,2,5]thiadiazine-4-carboxylic acid 1,1-dioxide]
IC50 [1]: 16.6 µM
IC50 [2]: > 10 µM

Cn1c(=O)c2c(nc(CCCCCCN3CC(C(=O)O)n4c(c(-c5cccc(C(F)(F)F)c5)c(Cc5cccc6ccccc56)cc4=O)S3(=O)=O)n2C)n(C)c1=O (stereo not drawn) [Compound 046, 8-(naphthalen-1-ylmethyl)-6-oxo-9-(3-(trifluoromethyl)phenyl)-2-(6-(1,3,7-trimethyl-2,6-dioxo-2,3,6,7-tetrahydro-1H-purin-8-yl)hexyl)-3,4-dihydro-2H,6H-pyrido[1,2-e][1,2,5]thiadiazine-4-carboxylic acid 1,1-dioxide]
IC50 [3]: 1.3 to 4.5 µM
IC50 [1]: 1.6 µM

CC(C)CN1CC(C(=O)O)n2c1c(-c1cccc(C(F)(F)F)c1)c(Cc1cccc3ccccc13)c(Cl)c2=O (stereo not drawn) [Compound 164, 6-chloro-1-isobutyl-7-(naphthalen-1-ylmethyl)-5-oxo-8-(3-(trifluoromethyl)phenyl)-1,2,3,5-tetrahydroimidazo[1,2-a]pyridine-3-carboxylic acid]
IC50 [1]: 0.9 µM
IC50 [2]: < 1.3 µM

Reference: patent US20230131899A1, “INHIBITORS OF MICROBIALLY INDUCED AMYLOID” (Axial Therapeutics, Inc., priority 2020, published 2023)
